Test results published in patent US8536201B2, “Pesticidal arylpyrrolidines” (Bayer Intellectual Property GmbH, priority 2009, dated 2013).

Key:
Format in all cases: in vivo
Spodoptera litura [1] = assay: Tobacco cutworm (Spodoptera litura) larvae, sweet potato leaf dip test; conditions: third instar larvae, treated sweet potato leaves, after 7 days
Protocol: Unless not mentioned otherwise, the test solutions were prepared as follows:
Solvent: dimethyl formamide, 3 parts by weight
Emulsifier: polyoxyethylene alkyl phenyl ether, 1 part by weight
To prepare the test solution, 1 part by weight of an active compound is mixed with the above-mentioned amount of solvent containing the above-mentioned amount of emulsifier, and the mixture is diluted with water to the desired concentration.
BIOLOGICAL TEST EXAMPLE 1.1
Tobacco Cutworm (Spodoptera litura) Larvae
Leaves of sweet potato were immersed in the test solution at the appropriate concentration, and the leaves were dried in air. The leaves were then placed in a petri dish having a diameter of 9 cm, and ten Spodoptera litura at third instar larvae were released therein. The petri dishes were placed in a temperature-controlled chamber at 25° C. After 2 days and 4 days more sweet potato leaves were added. After 7 days, the number of dead larvae was counted to calculate the insecticidal activity. An insecticidal activity of 100% means that all larvae were killed, whereas an insecticidal activity of 0% means that no larva was killed. In the current test, the results of two petri dishes for each treatment were averaged.

Spodoptera litura [2] = assay: Tobacco cutworm (Spodoptera litura) larvae using artificial diet; conditions: 20 ppm, 3rd-instar larvae
Protocol: BIOLOGICAL TEST EXAMPLE 1.2
Tobacco Cutworm (Spodoptera litura) Larvae Using Artificial Diet
2.3 g of artificial diet powder is put into a PET cup (7.5 cm diameter, 4 cm depth). The powder was leveled to make a layer in the bottom of the cup. 5 ml of a chemical solution is poured onto the powder and spread uniformly. The cup with treated diet powder is placed quiet to let the diet jell. Into each testing cup five 3rd-instar larvae were released. The testing cup is closed with the lid and placed in a temperature-controlled room at 25° C. and 50-60% R.H., 16L8D lighting conditions.
The mortality in % was determined according to the following criteria:
1 larva dead: 20% Efficacy
5 larvae dead: 100% Efficacy

Tetranychus urticae = assay: Two-spotted spider mite Tetranychus urticae spray test on kidney bean; conditions: adult mites, after 7 days
Protocol: BIOLOGICAL TEST EXAMPLE 2
Two-Spotted Spider Mite Tetranychus urticae
50 to 100 adult mites of Tetranychus urticae were inoculated to leaves of kidney bean at two-leaf stage planted in a pot of 6 cm in diameter. After one day, test solution at the appropriate concentration was sprayed thereon in a sufficient amount using a spray gun. After the spraying, the plant pot was placed inside a greenhouse, and after 7 days, the acaricidal activity was calculated. An acaricidal activity of 100% means that all mites were killed, an acaricidal activity of 0% means that no mite was killed.

Aulacophora femoralis = assay: Cucurbit leaf beetle (Aulacophora femoralis) cucumber leaf dip test; conditions: second instar larvae, treated cucumber leaves, after 7 days
Protocol: BIOLOGICAL TEST EXAMPLE 3
Cucurbit Leaf Beetle (Aulacophora femoralis)
Leaves of cucumber were immersed in the test solution at the appropriate concentration, and the leaves were dried in air. The leaves were then put in a plastic cup containing sterilized black soil and five Aulacophora femoralis at second instar larvae were released in the cup. The cups were placed in a temperature-controlled chamber at 25° C. After 7 days, the number of dead larvae was counted, and thus the insecticidal activity was calculated. An insecticidal activity of 100% means that all larvae were killed, whereas an insecticidal activity of 0% means that no larva was killed.

Musca domestica = Musca domestica test; conditions: for activity (mortality in %): 100 ppm, adults, sugar/compound sponge, after 2 days
Protocol: BIOLOGICAL TEST EXAMPLE 9
(§1) Solvent: Dimethyl Sulfoxide
To produce a suitable preparation of active compound, 10 mg of active compound are dissolved in 0.5 ml solvent, and the concentrate is diluted with water to the desired concentration. Prior to the assay, a piece of kitchen sponge is soaked with a mixture of sugar and compound solution and placed into a container. 10 adults (Musca domestica) are placed into the container and closed with a perforated lid.
After 2 days mortality in % is determined. 100% means that all the flies have been killed; 0% means that none of the flies have been killed.

Boophilus microplus = Boophilus microplus (dip)
Protocol: BIOLOGICAL TEST EXAMPLE 5
Boophilus microplus (Dip)
as §1
To produce a suitable preparation of active compound, 10 mg of active compound are dissolved in 0.5 ml solvent, and the concentrate is diluted with water to the desired concentration. Eight to ten adult engorged female Boophilus microplus ticks are placed in perforated plastic beakers and immersed in aqueous compound solution for one minute. Ticks are transferred to a filter paper in a plastic tray. Egg deposition of fertile eggs is monitored after. After 7 days mortality in % is determined. 100% means that all the ticks have been killed; 0% means that none of the ticks have been killed.

Ctenocephalides felis = Ctenocephalides felis test (CTECFE), blood feeding; conditions: Ctenocephalides felis, in Bos taurus, 48 h, read-out: activity (mortality in %)
Protocol: BIOLOGICAL TEST EXAMPLE 7
Ctenocephalides felis—Test (CTECFE)
as §1
To produce a suitable preparation of active compound, 10 mg of active compound are dissolved in 0.5 ml solvent, and the concentrate is diluted with cattle blood to the desired concentration. Approximately 20 adult unfed (Ctenocephalides felis) are placed in flea chambers. The blood chamber, sealed with parafilm on the bottom, are filled with cattle blood supplied with compound solution and placed on top of the flea chamber, so that the fleas are able to suck the blood. The blood chamber is heated to 37° C. whereas the flea chamber is kept at room temperature.
After 2 days mortality in % is determined. 100% means that all the fleas have been killed; 0% means that none of the fleas have been killed.

Lucilia cuprina = Lucilia cuprina (48 hrs) larval test; conditions: read-out: activity (larval mortality in %)
Protocol: BIOLOGICAL TEST EXAMPLE 8
Species: Lucilia cuprina 1st Instar Larvae (Age 24 Hrs)
as §1
10 mg active compound are dissolved in 0.5 ml dimethyl sulfoxide. Serial dilutions are made to obtain the desired rates. Approximately 20 Lucilia cuprina 1st instar larvae are transferred into a test tube containing 1 cm^3 of minced horse meat and 0.5 ml aqueous dilution of test compound.
After 2 days larval mortality in % is recorded. 100% efficacy=all larvae are killed, […].

Row | Compound | insecticidal activity (Spodoptera litura [1]; 20 ppm) [%] | insecticidal activity (Spodoptera litura [2]) [%] | insecticidal activity (Tetranychus urticae; 20 ppm) [%] | insecticidal activity (Aulacophora femoralis; 20 ppm) [%] | activity (mortality in %) (Musca domestica) [%] | insecticidal activity (Spodoptera litura [1]; 0.8 ppm) [%] | insecticidal activity (Tetranychus urticae; 4 ppm) [%] | insecticidal activity (Aulacophora femoralis; 4 ppm) [%] | mortality at 100 ppm (Boophilus microplus; Rhipicephalus microplus, 168 h, read-out: activity (mortality in %)) [%] | mortality at 100 ppm (Ctenocephalides felis) [%] | mortality at 100 ppm (Lucilia cuprina) [%] | mortality at 100 ppm (Musca domestica; Musca domestica, 48 h, read-out: activity (mortality in %)) [%] | insecticidal activity (Aulacophora femoralis; 100 ppm) [%] | activity (mortality in %) (Boophilus microplus; 100 ppm, adult engorged females immersed one minute, after 7 days) [%]
1 | CC(NC(=O)C1CC1)c1ccc(N2CCC(c3cc(Cl)cc(Cl)c3)(C(F)(F)F)C2)cc1 (racemic) [Compound 3] | 100 | 100 | 100 | 100 | 90 |  |  |  |  |  |  |  |  | 
2 | CC(NC(=O)C1CC1)c1ccc(N2CCC(c3cc(Cl)c(Cl)c(Cl)c3)(C(F)(F)F)C2)cc1 (racemic) [Compound 8] | 100 | 100 | 100 | 100 | 90 |  |  |  |  |  |  |  |  | 
3 | CCC(=O)NC(C)c1ccc(N2CCC(c3cc(C(F)(F)F)cc(C(F)(F)F)c3)(C(F)(F)F)C2)cc1 (racemic) [Compound 10] | 100 | 100 | 100 | 100 | 90 |  |  |  |  |  |  |  |  | 
4 | CC(=O)N[C@@H](C)c1ccc(N2CCC(c3cc(C(F)(F)F)cc(C(F)(F)F)c3)(C(F)(F)F)C2)cc1 (stereo partly drawn) [Compound 9-b] | 100 | 100 |  | 100 | 90 |  |  |  |  |  |  |  |  | 
5 | C[C@H](NC(=O)C1CC1)c1ccc(N2CCC(c3cc(C(F)(F)F)cc(C(F)(F)F)c3)(C(F)(F)F)C2)cc1 (stereo partly drawn) [Compound 11-b, N-[(1S)-1-(4-{3-[3,5-bis(trifluoromethyl)phenyl]-3-(trifluoromethyl)pyrrolidin-1-yl}phenyl)ethyl]cyclopropanecarboxamide] | 100 |  | 100 | 100 |  | 100 | 100 | 100 | 100 | 100 | 100 | 100 |  | 
6 | COCCC(=O)N[C@@H](C)c1ccc(N2CCC(c3cc(C(F)(F)F)cc(C(F)(F)F)c3)(C(F)(F)F)C2)cc1 (stereo partly drawn) [Compound 15-b] |  | 100 | 100 |  |  |  |  |  |  |  |  |  | 100 | 80
